{"source": "patent US8697747B2", "about": "“Enhancing coagulation or reducing fibrinolysis” (THe UAB Research Foundation, priority 2009, dated 2014)", "type_in_all_cases": "biochemical, human", "key": {"pooled normal plasma [1]": {"system": "pooled normal plasma", "assay": "Thrombelastographic coagulation kinetics, Celite-activated normal plasma", "conditions": "100 μM, mean ± SD, n=8", "description": "(§1) Pooled normal plasma (George King Bio-Medical, Overland Park, Kans.) anticoagulated with sodium citrate was utilized for experimentation. […] Factor XIII (FXIII) deficient plasma anticoagulated with sodium citrate was also obtained from George King Bio-Medical (Overland Park, Kans.).\n(§2) Plasma Sample Composition. The final volume for all subsequently described plasma sample mixtures was 359.4 μL. […] (Motterlini et al., Expert Opin Investig Drugs, 14:1305-1318 (2005), which is incorporated by reference herein in its entirety).\n(§3) Clot Lifespan Model Analyses. Plasma sample mixtures were placed in a disposable cup in a computer-controlled THROMBELASTOGRAPH® hemostasis system (Model 5000, Haemoscope Corp., Niles, Ill.), with addition of CaCl2 as the last step to initiate clotting. Data were collected for 15 minutes, as normal plasma completes thrombus formation within this interval in this system (Dong et al., Eur J Pharmacol 590:99-104 (2008)).\n(§4) Statistical Analyses. Data are presented as mean±SD. All conditions described were represented with n=8 experiments, as n=6-8 typically provides statistical power>0.8 in similar analyses (Nielsen et al., Acta Anaesthesiol Scand 49:222-231 (2005) and Nielsen et al., Blood Coagul Fibrinolysis 17:75-81 (2006)). Analyses of the effects of CORM-2 and iCORM-2 on thrombelastographic variables were conducted using one way analysis of variance with the Holm-Sidak test used for post hoc comparisons. Graphical representation of the data was generated with commercially available software (Origin 7.5, OriginLab Corp., Northampton, Mass.). A P value of ≦0.05 was considered significant."}, "pooled normal plasma [2]": {"system": "pooled normal plasma", "assay": "Thrombelastographic coagulation kinetics, tissue factor-activated normal plasma", "conditions": "100 μM", "description": "as §1, §2, §3, §4"}, "[3]": {"system": "factor VIII deficient plasma", "assay": "Thrombelastography, factor VIII deficient plasma", "conditions": "FVIII deficient plasma, 11 individuals, mean ± SD", "description": "Plasma deficient (<1% normal activity) in factor VIII (FVIII; 11 individuals), factor IX (FIX; 5 individuals), or factor VII (FVII; 4 individuals) was obtained from anonymous donors (George King Bio-Medical, Overland Park, Kans.) and was anticoagulated with sodium citrate. The final volume for all subsequently described plasma sample mixtures was […]. Sample composition consisted of […] of plasma, […] of tissue factor (0.1% final concentration in 0.9% NaCl; Diagnostica Stago, Asnieres, France), 3.6 mL of dimethyl sulfoxide (DMSO) or DMSO with CORM-2 ([…]; Sigma-Aldrich, St. Louis, Mo.), and 20 mL of […] CaCl2. […] (Motterlini et al. 2005). While CORM-2 decays slowly in DMSO, DMSO was added to the dry compound just prior to placement into the plasma mixture.\nPlasma sample mixtures were placed in a disposable cup in a computer-controlled THROMBELASTOGRAPH® hemostasis system (Model 5000; Haemoscope Corp., Niles, Ill.), with addition of CaCl2 as the last step to initiate clotting. Data were collected until clot strength stabilized (maximum amplitude).\nStatistical analyses. […] A paired student's t-test was used to analyze the effects of CORM-2 exposure in FVIII deficient individuals. The results of the FIX and FVII deficient groups were presented but not statistically analyzed secondary to the small number of individuals in each cohort. […] Statistical analyses and graphical representation of the data were generated with commercially available software (SigmaPlot 11.0; Systat Software Inc., San Jose, Calif.; CorelDRAW 12.0; Corel Corp., Ottawa, Ontario, Canada). A P value of less than 0.05 was considered significant."}, "[4]": {"conditions": "TF-activated normal plasma, mean ± SD, n=8"}}, "data": [{"smiles": "[C-]#[O+].[C-]#[O+].[C-]#[O+].[C-]#[O+].[C-]#[O+].[C-]#[O+].[Cl][Ru][Cl].[Cl][Ru][Cl]", "note": "[CORM-2, tricarbonyldichlororuthenium (II) dimer]", "values": [{"measurement": "MRTG (maximum rate of thrombus generation)", "setting": "pooled normal plasma [1]", "result": "13.7 ± 1.3", "unit": "dynes/cm^2/sec"}, {"measurement": "TMRTG (time to maximum rate of thrombus generation)", "setting": "pooled normal plasma [1]", "result": "188 ± 18", "unit": "s"}, {"measurement": "TTG (total thrombus generation)", "setting": "pooled normal plasma [1]", "result": "248 ± 17", "unit": "dynes/cm^2"}, {"measurement": "MRTG (maximum rate of thrombus generation)", "setting": "pooled normal plasma [2]; [4]", "result": "9.1 ± 0.9", "unit": "dynes/cm^2/sec"}, {"measurement": "TMRTG (time to maximum rate of thrombus generation)", "setting": "pooled normal plasma [2]; [4]", "result": "156 ± 13", "unit": "s"}, {"measurement": "TTG (total thrombus generation)", "setting": "pooled normal plasma [2]; [4]", "result": "273 ± 21", "unit": "dynes/cm^2"}, {"measurement": "velocity of clot growth relative to unexposed samples", "setting": "pooled normal plasma [2]; tissue factor activation", "result": "more than double"}, {"measurement": "TMRTG (time to maximum rate of thrombus generation)", "setting": "[3]; 100 mmol CORM-2", "result": "4.0 ± 2.3", "unit": "min"}, {"measurement": "TTG (total thrombus generation)", "setting": "[3]; 100 mmol CORM-2", "result": "232±56", "unit": "dynes/cm^2"}, {"measurement": "MRTG (maximum rate of thrombus generation)", "setting": "[3]; CORM-2", "result": "5.0±2.7", "unit": "dynes/cm^2/sec"}]}]}
